Laboratory results: patent publication US20260217701A1, “SELECTIVE BET INHIBITORS AND USES THEREOF” (Tay Therapeutics Limited, priority 2022, published 2026)
Where “and” joins values, the source holds several entries; their conditions need not be identical. Equal values may be shown once.

Test system: collagen-induced arthritis
Experiment: Collagen-induced arthritis (CIA) model: clinical scores and paw volume; for Average animal paw volume percent change (%): reference of the scale not given here; for animal paw volume percent change (%): reference of the scale not given here
Type: in vivo, Lewis rats
Conditions: for Average animal paw volume percent change (%) / Animal paw volume percent change (%) / Average animal paw volume: group 4 CIA + GSK620 (10 mg/kg); for Animal paw volume percent change (%) / clinical score left forelimb / clinical score left hind limb / clinical score right forelimb / clinical score right hind limb / clinical score, score (all limbs) / Animal paw volume: individual animals; for Animal paw volume: Group 4 (CIA + GSK620)
[1] = group 4 CIA + GSK620, 2nd section of table, 1st day (between Day 12 and Day 18)
[2] = group 4 CIA + GSK620, 2nd section of table, 2nd day (between Day 12 and Day 18)
[3] = group 4 CIA + GSK620, 2nd section of table, 3rd day (between Day 12 and Day 18)

Structure (SMILES): CNC(=O)c1cc(C(=O)NC2CC2)cn(Cc2ccccc2)c1=O [GSK620]
- Percent Inhibition in clinical score (Mean ± SD) (CIA rats, 10 mg/kg): 37 ± 14%
- Percent Inhibition in paw volume (Mean ± SD) (CIA rats, 10 mg/kg): 28 ± 21%
- Average animal paw volume percent change (%) (Day 0, L paw): 0.00%
- Animal paw volume percent change (%) (Day 0, L paw): 0.00%
- Average animal paw volume percent change (%) (Day 0, R paw): 0.00%
- Animal paw volume percent change (%) (Day 0, R paw): 0.00%
- Average overall clinical score (Day 0, CIA): 0
- clinical score left forelimb (Day 0, CIA): 0
- clinical score left hind limb (Day 0, CIA): 0
- clinical score right forelimb (Day 0, CIA): 0
- clinical score right hind limb (Day 0, CIA): 0
- clinical score, score (all limbs) (Day 0, CIA): 0
- Average animal paw volume (Day 6, L paw): 1.34 mL
- Animal paw volume percent change (%) (Day 6, L paw, 10 mg/kg): −0.39% and −0.73% and 0.36% and 0.00% (2×) and −0.37%
- Average animal paw volume (Day 6, R paw): 1.34 mL
- Average animal paw volume percent change (%) (Day 6, R paw): 1.50%
- Animal paw volume percent change (%) (Day 6, R paw, 10 mg/kg): −0.39% and 0.00% (4×)
- Average overall clinical score (Day 6, CIA): 0
- clinical score left forelimb (Day 6, CIA): 0
- clinical score left hind limb (Day 6, CIA): 0
- clinical score right forelimb (Day 6, CIA): 0
- clinical score right hind limb (Day 6, CIA): 0
- clinical score, score (all limbs) (Day 6, CIA): 0
- Average animal paw volume (Day 12, L paw): 1.36 mL
- Animal paw volume percent change (%) (Day 12, L paw, 10 mg/kg): 0.76% and 0.00% and 1.50%
- Average animal paw volume (Day 12, R paw): 1.37 mL
- Average overall clinical score (Day 12, CIA): 0
- clinical score left forelimb (Day 12, CIA): 0
- clinical score left hind limb (Day 12, CIA): 0
- clinical score right forelimb (Day 12, CIA): 0
- clinical score right hind limb (Day 12, CIA): 0
- clinical score, score (all limbs) (Day 12, CIA): 0
- Average animal paw volume (Day 13, L paw): 1.38 mL
- Animal paw volume percent change (%) (Day 13, L paw, 10 mg/kg): −0.73%
- Average animal paw volume (Day 13, R paw): 1.41 mL
- Average detailed clinical score, right hind limb (Day 13, CIA): 0.125
- Average detailed clinical score, score (Day 13, CIA): 0.125
- Average overall clinical score (Day 13, CIA): 0
- clinical score left forelimb (Day 13, CIA): 0
- clinical score left hind limb (Day 13, CIA): 0
- clinical score right forelimb (Day 13, CIA): 0
- clinical score right hind limb (Day 13, CIA): 0 (6×) and 1
- clinical score, score (all limbs) (Day 13, CIA): 0 (6×) and 1
- Animal paw volume (Day 13, L paw): 1.40 mL
- Animal paw volume (Day 13, R paw): 1.40 mL
- Animal paw volume percent change (%) (Day 14, L paw, 10 mg/kg): −0.37%
- Animal paw volume percent change (%) (Day 14, R paw, 10 mg/kg): 4.40%
- Average detailed clinical score, left hind limb (Day 14, CIA): 0.875
- Average detailed clinical score, right hind limb (Day 14, CIA): 1.125
- Average overall clinical score (Day 14, CIA): 2
- clinical score left forelimb (Day 14, CIA): 0
- clinical score left hind limb (Day 14, CIA): 0 (4×) and 2 (2×) and 1
- clinical score right forelimb (Day 14, CIA): 0
- clinical score right hind limb (Day 14, CIA): 0 (4×) and 2 (2×) and 3
- clinical score, score (all limbs) (Day 14, CIA): 0 (3×) and 4 and 3 (2×) and 2
- Animal paw volume (Day 14, L paw): 1.40 mL
- Average animal paw volume (Day 15, L paw): 1.74 mL
- Animal paw volume percent change (%) (Day 15, R paw, 10 mg/kg): 59.00%
- Average detailed clinical score, left hind limb (Day 15, CIA): 1.625
- Average detailed clinical score, score (Day 15, CIA): 3.625
- Average overall clinical score (Day 15, CIA): 4
- clinical score left forelimb (Day 15, CIA): 0
- clinical score left hind limb (Day 15, CIA): 1 (2×) and 3 (3×) and 0 (2×)
- clinical score right forelimb (Day 15, CIA): 0
- clinical score right hind limb (Day 15, CIA): 1 and 3 (3×) and 0 (2×) and 4
- clinical score, score (all limbs) (Day 15, CIA): 2 and 6 (3×) and 0 and 4 and 1
- Animal paw volume (Day 15, L paw): 1.60 mL
- Average overall clinical score (Day 18, CIA): 7
- Average animal paw volume (Day 19, L paw): 2.54 mL
- Animal paw volume percent change (%) (Day 19, L paw, 10 mg/kg): 83.00% and 100.00%
- Average overall clinical score (Day 19, CIA): 8
- Animal paw volume (Day 19, R paw): 2.20 mL
- Average overall clinical score (Day 21, CIA): 8
- clinical score left forelimb [1]: 0
- clinical score left hind limb [1]: 0
- clinical score right forelimb [1]: 0
- clinical score right hind limb [1]: 0
- clinical score, score (all limbs) [1]: 0
- clinical score left forelimb [2]: 0
- clinical score left hind limb [2]: 2
- clinical score right forelimb [2]: 0
- clinical score right hind limb [2]: 2
- clinical score, score (all limbs) [2]: 4
- clinical score left forelimb [3]: 0
- clinical score left hind limb [3]: 2
- clinical score right forelimb [3]: 0
- clinical score right hind limb [3]: 2
- clinical score, score (all limbs) [3]: 4
- clinical score left forelimb (group 4 CIA + GSK620, Day 18): 0
- clinical score left hind limb (group 4 CIA + GSK620, Day 18): 4 (7×) and 3
- clinical score right forelimb (group 4 CIA + GSK620, Day 18): 0
- clinical score right hind limb (group 4 CIA + GSK620, Day 18): 4 (6×) and 0 and 3
- clinical score, score (all limbs) (group 4 CIA + GSK620, Day 18): 8 (6×) and 4 and 6
- clinical score left forelimb (group 4 CIA + GSK620, Day 19): 1 (6×) and 0 (2×)
- clinical score left hind limb (group 4 CIA + GSK620, Day 19): 4 (5×) and 3 (3×)
- clinical score right forelimb (group 4 CIA + GSK620, Day 19): 0 (6×) and 1 (2×)
- clinical score right hind limb (group 4 CIA + GSK620, Day 19): 4 (3×) and 3 (4×) and 0
- clinical score, score (all limbs) (group 4 CIA + GSK620, Day 19): 9 (2×) and 10 and 6 and 5 and 7 (2×) and 8
- clinical score left forelimb (group 4 CIA + GSK620, Day 20): 1 (5×) and 2 and 0 (2×)
- clinical score left hind limb (group 4 CIA + GSK620, Day 20): 4 (5×) and 3 (3×)
- clinical score right forelimb (group 4 CIA + GSK620, Day 20): 0 (6×) and 1 (2×)
- clinical score right hind limb (group 4 CIA + GSK620, Day 20): 4 (3×) and 3 (4×) and 1
- clinical score, score (all limbs) (group 4 CIA + GSK620, Day 20): 9 (2×) and 11 and 6 (2×) and 7 (2×) and 8
